13 compounds from ChEMBL document CHEMBL1240388, “Single nucleotide polymorphism analysis of the major tripartite multidrug efflux pump of Escherichia coli: functional conservation in disparate animal reservoirs despite exposure to antimicrobial chemotherapy” (2010) can be followed below.

Converted amounts (≈) assume the structure as drawn.

Assay [1] relates to Escherichia coli. Nature of the assay: Antibacterial activity against Escherichia coli AG102MB. In kind it is functional.
Assay [2] relates to Escherichia coli. As to the kind of experiment: Antibacterial activity against Escherichia coli AG102MB harboring naive acrB gene. In kind it is functional.
Assay [3] has as its system Escherichia coli. Nature of the assay: Antibacterial activity against Escherichia coli AG102MB harboring pP10-based acrB gene. In kind it is functional.
For assay [4], the system named is Escherichia coli. As to the kind of experiment: Antibacterial activity against Escherichia coli AG102MB harboring pS1328-based acrB gene. It counts as functional.
Assay [5] concerns Escherichia coli. As to the kind of experiment: Antibacterial activity against Escherichia coli AG102MB harboring pSportI cloning vector.

As usually defined, the MIC is the lowest concentration found to suppress growth. With `CC1(C)S[C@@H]2[C@H](NC(=O)[C@H](N)c3ccccc3)C(=O)N2[C@H]1C(=O)O` [AMPICILLIN], the MIC is 16 µg/mL (≈ 45.8 µM) against Escherichia coli [1]; more than 1020 µg/mL against Escherichia coli [2]; more than 1020 µg/mL with Escherichia coli [3]; more than 1020 µg/mL against Escherichia coli [4]; more than 1020 µg/mL against Escherichia coli [5].

Take `O=C(N[C@H](CO)[C@H](O)c1ccc([N+](=O)[O-])cc1)C(Cl)Cl` [CHLORAMPHENICOL]: the results for the MIC in the assay on Escherichia coli [1], in the assay on Escherichia coli [3] and against Escherichia coli [5] were 2 µg/mL (≈ 6.19 µM), 32 µg/mL (≈ 99 µM) and 4 µg/mL (≈ 12.4 µM), respectively.

On to `C[C@H](CCC(=O)O)[C@H]1CC[C@H]2[C@@H]3[C@H](O)C[C@@H]4C[C@H](O)CC[C@]4(C)[C@H]3C[C@H](O)[C@]12C` [CHOLIC ACID], for which the MIC against Escherichia coli [1] turned out to be 4 µg/mL (≈ 9.79 µM); in the assay with Escherichia coli [2], 8 µg/mL (≈ 19.6 µM); in the assay on Escherichia coli [3], 8 µg/mL (≈ 19.6 µM); against Escherichia coli [4] it was 16 µg/mL (≈ 39.2 µM); against Escherichia coli [5], 4 µg/mL (≈ 9.79 µM).

In the assay with Escherichia coli [1], `O=C(O)c1cn(C2CC2)c2cc(N3CCNCC3)c(F)cc2c1=O` [CIPROFLOXACIN] returned an MIC of 0.063 µg/mL (≈ 0.19 µM).

Regarding `CC[C@H]1OC(=O)[C@H](C)[C@@H](O[C@H]2C[C@@](C)(OC)[C@@H](O)[C@H](C)O2)[C@H](C)[C@@H](O[C@@H]2O[C@H](C)C[C@H](N(C)C)[C@H]2O)[C@](C)(O)C[C@@H](C)C(=O)[C@H](C)[C@@H](O)[C@]1(C)O` [ERYTHROMYCIN], the MIC is 4 µg/mL (≈ 5.45 µM) with Escherichia coli [1]; 128 µg/mL (≈ 174 µM) against Escherichia coli [2]; 128 µg/mL (≈ 174 µM) in the assay on Escherichia coli [3]; 512 µg/mL (≈ 698 µM) against Escherichia coli [4]; 8 µg/mL (≈ 10.9 µM) in the assay with Escherichia coli [5].

With `CC(=O)O[C@H]1C[C@@]2(C)[C@@H](C[C@@H](O)[C@H]3[C@@]4(C)CC[C@@H](O)[C@@H](C)[C@@H]4CC[C@@]32C)/C1=C(\CCC=C(C)C)C(=O)O` [FUSIDIC ACID], the MIC in the assay with Escherichia coli [1] is 16 µg/mL (≈ 31 µM); against Escherichia coli [2] it was more than 512 µg/mL; in the assay on Escherichia coli [3] it was more than 512 µg/mL; in the assay with Escherichia coli [4], more than 512 µg/mL; with Escherichia coli [5], 8 µg/mL (≈ 15.5 µM).

`CN(C)c1ccc(C(=C2C=CC(=[N+](C)C)C=C2)c2ccc(N(C)C)cc2)cc1.[Cl-]` [GENTIAN VIOLET]: the MIC in the assay with Escherichia coli [1] turned out to be 0.5 µg/mL; in the assay with Escherichia coli [2], 4 µg/mL; in the assay on Escherichia coli [3] it was 4 µg/mL; against Escherichia coli [4], 4 µg/mL; against Escherichia coli [5], 0.5 µg/mL.

In the case of `CC[n+]1c(-c2ccccc2)c2cc(N)ccc2c2ccc(N)cc21.[Br-]` [HOMIDIUM BROMIDE], the minimum inhibitory concentration (MIC) against Escherichia coli [1] turned out to be 4 µg/mL; in the assay with Escherichia coli [2], 128 µg/mL; against Escherichia coli [3] it was 64 µg/mL; against Escherichia coli [4], 64 µg/mL; in the assay with Escherichia coli [5], 2 µg/mL.

`NC[C@H]1O[C@H](O[C@H]2[C@H](O)[C@@H](O[C@H]3O[C@H](CO)[C@@H](O)[C@H](N)[C@H]3O)[C@H](N)C[C@@H]2N)[C@H](O)[C@@H](O)[C@@H]1O` [KANAMYCIN] gave an MIC in the assay on Escherichia coli [1] of more than 1020 µg/mL.

Consider `CO[C@@H]1[C@@H](OC(N)=O)[C@@H](O)[C@H](Oc2ccc3c(O)c(NC(=O)c4ccc(O)c(CC=C(C)C)c4)c(=O)oc3c2C)OC1(C)C` [NOVOBIOCIN], for which the MIC against Escherichia coli [1] came out at 4 µg/mL (≈ 6.53 µM); with Escherichia coli [2] it was 512 µg/mL (≈ 836 µM); in the assay on Escherichia coli [3], 512 µg/mL (≈ 836 µM); with Escherichia coli [4] it was 512 µg/mL (≈ 836 µM); with Escherichia coli [5], 8 µg/mL (≈ 13.1 µM).

For the compound `CO[C@H]1C[C@H](O[C@H]2[C@H](C)[C@@H](O[C@@H]3O[C@H](C)C[C@H](N(C)C)[C@H]3O)[C@@H](C)C[C@@]3(CO3)C(=O)[C@H](C)[C@@H](O)[C@@H](C)[C@@H](C)OC(=O)[C@@H]2C)O[C@@H](C)[C@@H]1O` [OLEANDOMYCIN], the MIC is 256 µg/mL (≈ 372 µM) with Escherichia coli [1]; more than 1020 µg/mL with Escherichia coli [2]; more than 1020 µg/mL against Escherichia coli [3]; more than 1020 µg/mL with Escherichia coli [4]; 64 µg/mL (≈ 93 µM) against Escherichia coli [5].

As for `CN(C)[C@@H]1C(O)=C(C(N)=O)C(=O)[C@@]2(O)C(O)=C3C(=O)c4c(O)cccc4[C@@](C)(O)[C@H]3C[C@@H]12` [TETRACYCLINE], the MIC in the assay on Escherichia coli [1] is 1 µg/mL (≈ 2.25 µM); in the assay on Escherichia coli [2], 8 µg/mL (≈ 18 µM); in the assay with Escherichia coli [3], 8 µg/mL (≈ 18 µM); in the assay on Escherichia coli [4] it was 16 µg/mL (≈ 36 µM); in the assay with Escherichia coli [5], 1 µg/mL (≈ 2.25 µM).

On to `CC[C@H]1OC(=O)C[C@@H](O)[C@H](C)[C@@H](O[C@@H]2O[C@H](C)[C@@H](O[C@H]3C[C@@](C)(O)[C@@H](O)[C@H](C)O3)[C@H](N(C)C)[C@H]2O)[C@@H](CC=O)C[C@@H](C)C(=O)/C=C/C(C)=C/[C@@H]1CO[C@@H]1O[C@H](C)[C@@H](O)[C@@H](OC)[C@H]1OC` [TYLOSIN], for which the MIC is 128 µg/mL (≈ 140 µM) in the assay on Escherichia coli [1]; 1020 µg/mL (≈ 1120 µM) in the assay on Escherichia coli [2]; 1020 µg/mL (≈ 1120 µM) against Escherichia coli [3]; more than 1020 µg/mL in the assay on Escherichia coli [4]; 16 µg/mL (≈ 17.5 µM) in the assay on Escherichia coli [5].
